# Experiments:
# [1] = test system: differentiated dopaminergic PC12 cells; experiment: LIVE/DEAD viability of differentiated PC12 cells exposed to 6-OHDA; assay type: cell-based; conditions: 1 μM for 6 h, then 30 μM 6-OHDA for 24 h
# Description: Differentiated dopaminergic PC12 cells and primary mouse embryonic cortical neurons (E17, DIV14) were treated with mock (H2O) or 1 μM of dextran, alginate, HA-GAGR or midi-GAGR for 6 h and insulated by oxidative stressors (30 μM 6-OHDA [PC12] and 10 μM amyloid β peptide [cortical neurons]) for 24 h. The viability of neurons was assessed using LIVE/DEAD Viability/Cytotoxicity Assay Kit (Invitrogen).
# [2] = test system: phosphorylated CREB; experiment: Nuclear phospho-CREB immunostaining in PC12 cells; assay type: cell-based; conditions: 1 μM, 24 h
# Description: (§1) Differentiated PC12 cells and mouse embryonic cortical neurons (E17, DIV14) were treated with mock, dextran, alginate, HA-GAGR or midi-GAGR (1 μM) for 24 h and fixed in 3.7% paraformaldehyde. The fixed cells and neurons were immunostained with antibodies against α-tubulin and phospho-CREB (p-CREB) along with DAPI (nucleus).
# [3] = test system: phosphorylated CREB; experiment: Nuclear phospho-CREB immunostaining in cortical neurons; assay type: cell-based, mouse; conditions: 1 μM, 24 h
# Description: as §1
# [4] = test system: rat embryonic cortical neurons; experiment: Scholl ring analysis of cortical neurons exposed to 4-HNE; assay type: cell-based; conditions: pretreatment 2 days, then 25 μM 4-HNE 1 day
# Description: Rat embryonic cortical neurons were treated with mock (FIG. 11C), 1 μM HA-GAGR (high acyl gellan gum), 1 μM dextran, 100 μM ascorbate or 1 μM midi-GAGR (FIG. 11D) for 2 days and then with 25 μM 4-hydroxynonenal (4-HNE), a lipid peroxide, for 1 day. After fixation, neurons were immunostained with anti-synaptophysin antibody (green) and rhodamine-phalloidin (actin: red). Scholl ring analysis was performed. Neurons pre-treated with mock, dextran or ascorbate lost neuritis (neuritic atrophy) in the presence of 4-HNE.
# [5] = ABTS Antioxidant Assay Kit; assay type: biochemical; conditions: 10 μM
# Description: The antioxidant capacity of midi-GAGR was measured using ABTS Antioxidant Assay Kit (Zenbio Co.). […] This was slightly stronger than antioxidant capacity of LA-GAGR (10 μM LA-GAGR=15.4 μM Trolox) (Table 2)
# [6] = even at high doses (~200 mg/kg); cited from earlier work
# [7] = cited from earlier work
Substance,6-OHDA-induced cell death [1],increase of nuclear p-CREB levels [2],increase of nuclear p-CREB levels [3],neurites (neuritic atrophy) in the presence of 4-HNE [4],antioxidant capacity [5] [μM Trolox],side effects in humans [6],oral bioavailability [7]
alginate,did not,not significantly increased,not significantly increased,,,,
dextran,did not,not significantly increased,not significantly increased,lost neuritis,,,
high acyl gellan gum [HA-GAGR],,not significantly increased,not significantly increased,"formed neuritis, but less branched",,,
low acyl gellan gum [LA-GAGR],,,,,15.4,few side effects,good

# From US20160361255A1, “Peptide Nanotubes for Slow Release of Drugs at Peripheral Nerve Injury” (The University of Toledo, priority 2015, published 2016)
